Source: patent publication US20260048060A1, “POLYCYCLIC THYROID HORMONE b RECEPTOR AGONIST AND USE THEREOF” (CASCADE PHARMACEUTICALS, INC., priority 2022, published 2026)

Experiments:
THRβ [1] = molecular target: T1, THRβ (Homo sapiens, UniProt P10828); assay: Reporter gene (GAL4-THRβ-LBD / Dual-Glo luciferase) agonist activity assay in HEK293T cells; format: cell-based; conditions: ratio of reporter gene EC50 values THRα/THRβ
T1 construct: expressed in transfected cells; host or cells: HEK293T
T1 sequence (P10828 217-461): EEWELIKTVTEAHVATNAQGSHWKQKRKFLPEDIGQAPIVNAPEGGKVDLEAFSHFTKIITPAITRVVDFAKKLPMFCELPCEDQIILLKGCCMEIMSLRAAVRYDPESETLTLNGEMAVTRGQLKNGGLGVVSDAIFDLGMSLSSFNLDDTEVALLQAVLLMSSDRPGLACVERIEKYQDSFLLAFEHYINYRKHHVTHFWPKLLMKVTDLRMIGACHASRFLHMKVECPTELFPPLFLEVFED
Excerpt: Experimental Example 1: Detection of THRα and THRβ Agonist Activities of Compounds Based on Reporter Gene Activity Assay Method
1.1 Construction and Preparation of Plasmids pGAL4-THR-LBD and pG5-Luc
The pGAL4-THRα-LBD and pGAL4-THRβ-LBD plasmids used in the reporter gene assay system were constructed by a conventional molecular cloning method comprising the following main steps: the cDNA sequences of THRα (NM_003250) and THRβ (NM_000461) corresponding to the amino acid sequences of THRα (163-407AA) and THRβ (217-461AA) were inserted into the BamHI and NotI enzyme digestion sites of the pGAL4 vector by the PCR technique respectively to obtain the pGAL4-THRα-LBD and pGAL4-THRβ-LBD plasmids; the pG5-Luc (#E249A) and pRL-TK (#E2241) plasmids were purchased from Promega; the plasmids were transfected into the E. coli DH5α by the CaCl2 method, and after further culture and amplification, the plasmids were purified by Plasmid Extraction Kits (TIANGEN, #D107) to obtain the corresponding plasmid DNAs.
1.2 Co-Transfection of Plasmids into HEK293T Cells and Treatment with Compounds
The HEK293T cells were inoculated into a 96-well plate at a density of 1×10^4/well the day before plasmid transfection. Cell transfection was conducted according to the instructions of the transfection reagent FuGENE® HD (Promega, #E2311). The main steps were as follows: taking one well as an example here, the plasmids pGAL4-THRα-LBD or pGAL4-THRβ-LBD, pG5-Luc, and pRL-TK were added in the proportions of 20 ng, 50 ng, and 5 ng to 10 μL of Opti-MEM™ I medium (Gibco, #11058021) and mixed well; subsequently, 0.25 uL of FuGENE® HD was added, mixed well, and then left at room temperature for 5 min; afterwards, 10 μL of the mixture was added to the cell wells containing 100 μL of culture medium. After cell co-transfection for 6 h, the compound was diluted in a 3-fold gradient with dimethyl sulfoxide at the highest concentration of 1 uM. The compound was added to the cell culture medium at a total of 10 concentrations for treatment for 24 h. There were a total of two duplicate wells for each concentration. Triiodothyronine (T3) was used as the positive control.
1.3 Dual-Glo Luciferase Assay
After the cells were treated with the compound for 24 h, the cells were assayed according to the instructions of Dual-Glo® Luciferase Assay System (Promega, #E2940). The main steps were as follows: 50 μL of culture medium was aspirated from each well and discarded, and then 50 μL of Dual-Glo® Luciferase reagent was added and oscillated at room temperature for 10 min; 80 μL of lysis reaction solution was measured into a white opaque optiPlate-96-well plate, and the luminescence signal value (Firefly-Luc) of the Firefly luciferase was detected using an MD i3x multi-mode microplate reader; 40 μL of Dual-Glo® Stop & Glo® reagent was then added, and oscillated at room temperature for 10 min; the luminescence signal value (Renilla-Luc) of the Renilla luciferase was then detected using an MD i3x multi-mode microplate reader. The Firefly-Luc/Renilla-Luc ratio was used as the activation activity of the compound against THR, and the ratio in the solvent DMSO group was used for normalization; the dose-response curve was fitted with four parameters using the GraphPad Prism6.0 software, and the EC50 value was calculated.

THRβ [2] = molecular target: T2, THRβ (Homo sapiens, UniProt P10828); assay: Time-resolved FRET (THR-FRET) agonist activity assay, GST-tagged THRβ LBD with SRC2 polypeptide; format: biochemical; conditions: ratio of THR-FRET EC50 values THRα/THRβ
T2 construct: made in house; host or cells: E. coli BL21 (DE3)
T2 sequence (P10828 217-461 limits assumed): T1 sequence (P10828 217-461)
Excerpt: Experimental Example 2: Detection of Agonist Activities of Compounds Against THRα/β Based on Time-Resolved Fluorescence Resonance Energy Transfer (THR-FRET)
By visiting NCBI, the THRα/β LBD domain sequences were found. The pET21-His-GST-dLBT-THRα LBD and pET21-His-GST-dLBT-THRβ LBD overexpression vectors were constructed by the fusion method, and sequenced to confirm the accuracy of the sequences.
The correctly sequenced THRα LBD and THRβ LBD overexpression vectors were transfected into E. coli cells BL21 (DE3), and spread on an agar plate with ampicillin. Monoclones were picked out and amplified in an LB medium, and transferred into 1 L LB at a ratio of 1:100 for large-scale culture. When the OD value was at 0.8 to 1.2, 0.5 mM isopropyl-beta-D-thiogalactopyranoside (IPTG) was added, and induced overnight at 18° C. The bacteria were harvested, disrupted, and purified via the GST column and the molecular sieve to obtain two proteins His-GST-dLBT-THRα LBD and His-GST-dLBT-THRβ LBD.
The proteins were taken out from a refrigerator at −80° C. The proteins with the GST-tagged THRα/β LBD domain and the Eu-labelled GST antibodies were thawed slowly on ice, and an assay buffer containing a final concentration of 5 mM dithiothreitol (DTT) was formulated.
The starting concentration of the compound was 100 μM (in DMSO). The compound (100 μM in DMSO) was subjected to 3-fold isogradient dilution with DMSO to obtain a total of 11 isogradient concentrations. Subsequently, the above compounds at the isogradient concentration were further subjected to 50-fold dilution with an assay buffer containing 5 mM DTT.
The final concentrations of all components were calculated based on a system with a final volume of 20 μL per well. To 18 μL of assay buffer containing 5 mM DTT, the GST-tagged THRα/β proteins, the SRC2 ([…]) polypeptide, XL665 (Cisobio, #610SAXLB), and the Eu-labeled GST antibody were added, and the final concentrations were 2 nM, 200 nM, 0.05 nM, and 7.6 nM respectively to formulate 18 μL of reaction mixture of the proteins, polypeptide, and antibody per well.
18 μL of reaction mixture and 2 μL of diluted compound were added into an optiplate-384-well plate, and reacted at room temperature for 24 h.
The plate was read using an MD i3X multi-mode microplate reader with the excitation and emission wavelengths of 340 nm and 665 nm, respectively. The intensity of light at a wavelength of 616 nm generated by europium excited by 340 nm wavelength light from the MD i3X multi-mode microplate reader was used as the background. According to the different activation degrees of different compounds against THRα and THRβ, the intensity of the emission light at a wavelength of 665 nm generated by exciting XL665 with the exciting light at a wavelength of 616 nm was varied. The intensity ratio between these two light wavelengths (665 nm, 616 nm) was used as the activation activity of the compound against THRα or THRβ, and the ratio in the solvent DMSO group was used for normalization. The dose-response curve was fitted with four parameters using the GraphPad Prism 6.0 software, and the EC50 value was calculated.

CNC(=O)c1ccccc1SCc1c(Cl)cc(-n2nc(N)c(=O)[nH]c2=O)cc1Cl [Compound 29] was tested, and the “Selectivity (THRα/THRβ)” value (THRβ [1]) was “† (†: 5 ≥ THRα/β;)” and the “Selectivity (THRα/THRβ)” value (THRβ [2]) was “††† (†††: 20 ≥ THRα/β > 10;)”.

In the case of [2H]C(Oc1ccccc1C(=O)NC)c1c(Br)cc(-n2nc(C([2H])(F)F)c(=O)[nH]c2=O)cc1Br (centres unmarked) [Compound 111], the “Selectivity (THRα/THRβ)” value (THRβ [1]) is reported as “† (†: 5 ≥ THRα/β;)” and the “Selectivity (THRα/THRβ)” value (THRβ [2]) is reported as “†† (††: 10 ≥ THRα/β;)”.

For [2H]C([2H])([2H])NC(=O)c1ccccc1OCc1c(Br)cc(-n2nc(C(F)F)c(=O)[nH]c2=O)cc1Br [Compound 109], the “Selectivity (THRα/THRβ)” value (THRβ [1]) was “† (†: 5 ≥ THRα/β;)” and the “Selectivity (THRα/THRβ)” value (THRβ [2]) was “†† (††: 10 ≥ THRα/β;)”.

For COc1ccc(OCc2c(Cl)cc(-n3ncc(=O)[nH]c3=O)cc2Cl)c(C(N)=O)c1 [Compound 69], the “Selectivity (THRα/THRβ)” value (THRβ [1]) was “† (†: 5 ≥ THRα/β;)” and the “Selectivity (THRα/THRβ)” value (THRβ [2]) was “††† (†††: 20 ≥ THRα/β > 10;)”.

For [2H]C(Oc1ccccc1C(=O)NC([2H])([2H])[2H])c1c(Br)cc(-n2nc(C(F)F)c(=O)[nH]c2=O)cc1Br (centres unmarked) [Compound 110], the “Selectivity (THRα/THRβ)” value (THRβ [1]) was “† (†: 5 ≥ THRα/β;)” and the “Selectivity (THRα/THRβ)” value (THRβ [2]) was “†† (††: 10 ≥ THRα/β;)”.

In the case of NC(=O)c1ccccc1OCc1c(Br)cc(-n2ncc(=O)[nH]c2=O)cc1Br [Compound 38], the “Selectivity (THRα/THRβ)” value (THRβ [1]) is reported as “†† (††: 10 ≥ THRα/β > 5;)” and the “Selectivity (THRα/THRβ)” value (THRβ [2]) is reported as “†† (††: 10 ≥ THRα/β;)”.

With [2H]C([2H])(Oc1ccccc1C(=O)NC)c1c(Br)cc(-n2nc(C(F)F)c(=O)[nH]c2=O)cc1Br [Compound 108] the “Selectivity (THRα/THRβ)” value (THRβ [1]) was “† (†: 5 ≥ THRα/β;)” and the “Selectivity (THRα/THRβ)” value (THRβ [2]) was “†† (††: 10 ≥ THRα/β;)”.
